Laboratory results as given in patent US6727237B2, “Inhibitors of bacterial NAD synthetase” (priority 1998, dated 2004).
≈ marks a conversion by molar mass, not a printed value. Where “and” joins values, the source holds several entries; their conditions need not be identical. Identical values can stand only once.

Assays:
[1] = tested on: Staphylococcus epidermitis; assay: Dose response of bacterial growth inhibition, MIC85; conditions: minimum inhibitory concentration to achieve 85% inhibition, S. epidermitis
[2] = tested on: Staphylococcus epidermitis; assay: Bacterial growth inhibition screen in LB media (absorbance 595 nm), percent inhibition; conditions: S. epidermitis
[3] = molecular target: T1, bacterial NAD synthetase enzyme (Bacillus subtilis, UniProt P08164); assay: biochemical; type: biochemical
T1 sequence (P08164 2-272 limits assumed): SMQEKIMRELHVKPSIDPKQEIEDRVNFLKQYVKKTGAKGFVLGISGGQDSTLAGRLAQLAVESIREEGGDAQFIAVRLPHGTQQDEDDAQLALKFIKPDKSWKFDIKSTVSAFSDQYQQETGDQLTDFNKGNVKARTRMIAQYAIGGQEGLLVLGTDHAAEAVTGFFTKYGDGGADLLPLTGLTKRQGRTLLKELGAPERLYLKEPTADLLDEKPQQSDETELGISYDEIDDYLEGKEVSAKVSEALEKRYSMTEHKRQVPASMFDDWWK

[4] = compound at 0.2 mM (Table 312A)

SMILES	MIC85 [1] [µM]	% Inhibition ([2]; concentration screened 10 uM)	% Inhibition [3, 4] [%]	% Inhibition ([2]; concentration screened 100 uM) [%]	% Inhibition ([3]; compound at 0.1 mM (Table 314)) [%]
COc1ccc2c(ccn2CCCCCCCCOC(=O)c2cc3ccccc3[n+](C)c2)c1 [Compound 824]	3.7	97.67%	–	–	–
C[N+](C)(C)c1cccc(C(=O)OCCCCCCCn2ccc3cc(OCc4ccccc4)ccc32)c1 [Compound 808]	30	98.06%	–	–	–
C[n+]1cc(C(=O)OCCCCCCn2ccc3cc(OCc4ccccc4)ccc32)cc2ccccc21 [Compound 827]	3.7	95.86%	–	–	–
C[n+]1cc(C(=O)OCCCCCn2ccc3cc(OCc4ccccc4)ccc32)cc2ccccc21 [Compound 826]	3.7	92.57%	–	–	–
C[N+](C)(C)c1cccc(C(=O)OCCCCCCCCn2ccc3cc(OCc4ccccc4)ccc32)c1 [Compound 809]	10	99.81%	–	–	–
O=C(OCCCCCCCn1ccc2cc([N+](=O)[O-])ccc21)c1cnc2ccccc2c1 [Compound 833]	10 (≈ 4.31 µg/mL)	98.00%	–	–	–
COc1ccc2c(ccn2CCCCCCCCOC(=O)c2cccc([N+](C)(C)C)c2)c1 [Compound 804]	30	97.29%	–	–	–
O=C(OCCCCCCCCn1ccc2cc([N+](=O)[O-])ccc21)c1cnc2ccccc2c1 [Compound 834]	3.7 (≈ 1.65 µg/mL)	98.13%	–	–	–
COc1ccc2c(ccn2CCCCCCCOC(=O)c2cc3ccccc3[n+](C)c2)c1 [Compound 823]	10	97.03%	–	–	–
CN(C)c1ccc(CC(=O)OCCCCCCCn2ccc3cc([N+](=O)[O-])ccc32)cc1 [Compound 851]	30 (≈ 13.1 µg/mL)	98.90%	–	–	–
O=C(OCCCCCCCCCn1ccc2cc([N+](=O)[O-])ccc21)c1cnc2ccccc2c1 [Compound 835]	3.7 (≈ 1.7 µg/mL)	99.03%	–	–	–
COc1ccc2[nH]c(CCC[n+]3ccccc3)cc2c1 [Compound 372]	30	67.34%	–	–	–
CN(C)c1cccc(C(=O)OCCCCCCCn2ccc3cc([N+](=O)[O-])ccc32)c1 [Compound 839]	30 (≈ 12.7 µg/mL)	99.35%	–	–	–
COC(=O)c1ccc2[nH]c(CCCCC[n+]3cccc4ccccc43)cc2c1 [Compound 488]	–	2.72%	17.65	–	–
c1ccc(-c2ccc3[nH]c(CCCCC[n+]4ccc5ccccc5c4)cc3c2)cc1 [Compound 542]	–	–	15.89	96.93	–
CC(=O)c1ccc2[nH]c(CCCC[n+]3ccccc3)cc2c1 [Compound 367]	–	5.64% and 5.22%	9.72	–	–
CC(C)c1ccc2[nH]c(CCCCCC[n+]3ccccc3)cc2c1 [Compound 321]	–	–	–	100.00	37.25
Fc1ccc2[nH]c(CCCC[n+]3cccc4ccccc43)cc2c1 [Compound 451]	–	5.57%	–	–	2.94
O=[N+]([O-])c1cc([N+](=O)[O-])c2[nH]c(CCCCCC[n+]3cccc4ccccc43)cc2c1 [Compound 417]	–	7.80%	14.59	–	–
COc1ccc2[nH]c(CCCC[n+]3ccccc3)cc2c1 [Compound 373]	–	1.53%	14.13	–	7.72
c1ccc(C(c2ccccc2)(c2ccccc2)c2ccc3[nH]c(CCCCCC[n+]4ccccc4)cc3c2)cc1 [Compound 339]	–	–	42.87	100.00	–
CC(=O)c1ccc2[nH]c(CCCCC[n+]3ccccc3)cc2c1 [Compound 368]	–	–	–	91.36	21.10
c1ccc(Oc2ccc3[nH]c(CCCCC[n+]4ccc5ccccc5c4)cc3c2)cc1 [Compound 566]	–	–	29.72	98.21	–
O=C(c1ccccc1)c1ccc2[nH]c(CCCCCCCOC(=O)C(c3ccccc3)c3ccccc3)cc2c1 [Compound 676]	–	5.52%	–	–	1.46
c1ccc2c[n+](CCCCCCc3cc4ccccc4[nH]3)ccc2c1 [Compound 501]	–	–	4.98	7.93	–
Fc1ccc2[nH]c(CCCCC[n+]3ccccc3)cc2c1 [Compound 344]	–	8.08%	4.58	–	–
O=C(OCCCCCCCCc1cc2cc(Oc3ccccc3)ccc2[nH]1)C(c1ccccc1)c1ccccc1 [Compound 659]	–	–	25.47	20.41	–
O=[N+]([O-])c1ccc2[nH]c(CCCCCCCC[n+]3cccc4ccccc43)cc2c1 [Compound 443]	–	7.66%	5.51	–	–
C[n+]1cccc(C(=O)OCCCCCCn2ccc3cc([N+](=O)[O-])ccc32)c1 [Compound 865]	–	50.42% and 48.55%	46.43	94.40	–
